Data: BigSolDB 2.1

O=C(O)c1ccccc1Nc1ccccc1
solubility (mole fraction)
Settings	in acetone	in acetonitrile	in ethanol	in ethyl acetate	in isopropanol	in methanol	in n-butanol	in n-propanol	in toluene
283.15 K	0.019	0.00147	0.00703	0.012	0.00593	0.00331	0.00849	0.00734	0.00238
285.65 K	0.0202	0.00171	0.00768	0.0133	0.00692	0.00381	0.00972	0.00831	0.00275
288.15 K	0.0223	0.00197	0.00854	0.0156	0.00805	0.00439	0.0112	0.00975	0.00321
290.65 K	0.0252	0.00228	0.00958	0.0182	0.00933	0.00521	0.013	0.0114	0.00374
293.15 K	0.0279	0.00268	0.0112	0.0213	0.0107	0.0061	0.0147	0.0132	0.00439
295.65 K	0.0304	0.00311	0.013	0.0235	0.0124	0.00723	0.0167	0.0152	0.00502
298.15 K	0.0335	0.00373	0.0152	0.0267	0.0144	0.00825	0.0187	0.0172	0.00573
300.65 K	0.0361	0.00425	0.0171	0.0301	0.0164	0.00944	0.0209	0.0194	0.00648
303.15 K	0.0399	0.00491	0.0196	0.034	0.0184	0.0106	0.0233	0.0216	0.00742
305.65 K	0.0427	0.00556	0.0219	0.0373	0.0208	0.0119	0.0256	0.0239	0.00841
308.15 K	0.0465	0.00617	0.0249	0.0414	0.0232	0.0129	0.0283	0.0266	0.0096
310.65 K	0.0499	0.00695	0.0276	0.0458	0.0254	0.0145	0.0311	0.0292	0.0109
313.15 K	0.0537	0.0078	0.0311	0.0503	0.0281	0.0164	0.0338	0.0322	0.0124
315.65 K	0.0582	0.00892	0.0339	0.0555	0.0309	0.0186	0.0367	0.035	0.014
318.15 K	0.063	0.0102	0.0374	0.0604	0.034	0.0212	0.0396	0.0383	0.0155
